# According to ChEMBL document CHEMBL1201862, “PubChem BioAssay data set” (2004):
#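 Step 1: Grow cells in 96-well plates. Step 2: Expose to compound for 48 hours at 5 concentrations. Step 3: Interpolate endpoints linearly; if unreached, use highest concentration. The concentration for 50% growth inhibition is given as GI50.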 Active and inactive are the calls of the source. Rule as the data show it: active = GI50 up to about 1.1 µM and inactive = higher.
# Tests used:
# Assay in all cases: DTP human tumour cell line panel, 48 h
# 786-0 = test system: 786-0
# A498 = test system: A498
# ACHN = test system: ACHN
# BT-549 = test system: BT-549
# CAKI-1 = test system: CAKI-1
# CCRF-CEM = test system: CCRF-CEM
# COLO 205 = test system: COLO 205
# DU-145 = test system: DU-145
# EKVX = test system: EKVX
# HCT-116 = test system: HCT-116
# HCT-15 = test system: HCT-15
# HL-60 = test system: HL-60
# HOP-62 = test system: HOP-62
# HOP-92 = test system: HOP-92
# Hs-578T = test system: Hs-578T
# IGROV-1 = test system: IGROV-1
# K562 = test system: K562
# KM12 = test system: KM12
# LOX IMVI = test system: LOX IMVI
# M14 = test system: M14
# MCF7 = test system: MCF7
# MDA-MB-231 = test system: MDA-MB-231
# MDA-MB-435 = test system: MDA-MB-435
# MDA-N = test system: MDA-N
# MOLT-4 = test system: MOLT-4
# NCI-H226 = test system: NCI-H226
# NCI-H23 = test system: NCI-H23
# NCI-H460 = test system: NCI-H460
# NCI-H522 = test system: NCI-H522
# NCI/ADR-RES = test system: NCI/ADR-RES
# OVCAR-4 = test system: OVCAR-4
# OVCAR-5 = test system: OVCAR-5
# OVCAR-8 = test system: OVCAR-8
# PC-3 = test system: PC-3
# RPMI-8226 = test system: RPMI-8226
# RXF 393 = test system: RXF 393
# SF-268 = test system: SF-268
# SF-295 = test system: SF-295
# SF-539 = test system: SF-539
# SK-MEL-2 = test system: SK-MEL-2
# SK-MEL-5 = test system: SK-MEL-5
# SK-OV-3 = test system: SK-OV-3
# SN12C = test system: SN12C
# SNB-19 = test system: SNB-19
# SNB-75 = test system: SNB-75
# SR = test system: SR
# SW-620 = test system: SW-620
# T47D = test system: T47D
# TK-10 = test system: TK-10
# U-251 = test system: U-251
# UACC-257 = test system: UACC-257
# UACC-62 = test system: UACC-62
# UO-31 = test system: UO-31
# A549 = test system: A549
# HCC 2998 = test system: HCC 2998
# HT-29 = test system: HT-29
# Malme-3M = test system: Malme-3M
# OVCAR-3 = test system: OVCAR-3
# SK-MEL-28 = test system: SK-MEL-28
smiles,measurement,setting,value
C#CCOC(=O)c1ccccc1OC(C)=O,GI50,786-0,> 100 µM (inactive)
same,GI50,A498,> 100 µM (inactive)
same,GI50,ACHN,> 100 µM (inactive)
same,GI50,BT-549,> 100 µM (inactive)
same,GI50,CAKI-1,> 100 µM (inactive)
same,GI50,CCRF-CEM,> 100 µM (inactive)
same,GI50,COLO 205,> 100 µM (inactive)
same,GI50,DU-145,> 100 µM (inactive)
same,GI50,EKVX,> 100 µM (inactive)
same,GI50,HCT-116,> 100 µM (inactive)
same,GI50,HCT-15,> 100 µM
same,GI50,HL-60,> 100 µM (inactive)
same,GI50,HOP-62,> 100 µM (inactive)
same,GI50,HOP-92,> 100 µM (inactive)
same,GI50,Hs-578T,> 100 µM (inactive)
same,GI50,IGROV-1,> 100 µM (inactive)
same,GI50,K562,> 100 µM (inactive)
same,GI50,KM12,> 100 µM (inactive)
same,GI50,LOX IMVI,> 100 µM (inactive)
same,GI50,M14,> 100 µM (inactive)
same,GI50,MCF7,> 100 µM (inactive)
same,GI50,MDA-MB-231,> 100 µM (inactive)
same,GI50,MDA-MB-435,> 100 µM (inactive)
same,GI50,MDA-N,> 100 µM (inactive)
same,GI50,MOLT-4,> 100 µM (inactive)
same,GI50,NCI-H226,> 100 µM (inactive)
same,GI50,NCI-H23,> 100 µM (inactive)
same,GI50,NCI-H460,> 100 µM (inactive)
same,GI50,NCI-H522,> 100 µM (inactive)
same,GI50,NCI/ADR-RES,> 100 µM (inactive)
same,GI50,OVCAR-4,> 100 µM (inactive)
same,GI50,OVCAR-5,> 100 µM (inactive)
same,GI50,OVCAR-8,> 100 µM (inactive)
same,GI50,PC-3,> 100 µM (inactive)
same,GI50,RPMI-8226,> 100 µM (inactive)
same,GI50,RXF 393,> 100 µM (inactive)
same,GI50,SF-268,> 100 µM (inactive)
same,GI50,SF-295,> 100 µM (inactive)
same,GI50,SF-539,> 100 µM (inactive)
same,GI50,SK-MEL-2,> 100 µM (inactive)
same,GI50,SK-MEL-5,> 100 µM (inactive)
same,GI50,SK-OV-3,> 100 µM (inactive)
same,GI50,SN12C,> 100 µM (inactive)
same,GI50,SNB-19,> 100 µM (inactive)
same,GI50,SNB-75,> 100 µM (inactive)
same,GI50,SR,> 100 µM (inactive)
same,GI50,SW-620,> 100 µM (inactive)
same,GI50,T47D,> 100 µM (inactive)
same,GI50,TK-10,> 100 µM (inactive)
same,GI50,U-251,> 100 µM (inactive)
same,GI50,UACC-257,> 100 µM (inactive)
same,GI50,UACC-62,> 100 µM (inactive)
same,GI50,UO-31,> 100 µM (inactive)
COc1ccc2c3c1OC1C(F)C=CC4(O)C(C2)NCCC314 (stereo not given),GI50,786-0,1.2 µM (inactive)
same,GI50,A498,4.47 µM (inactive)
same,GI50,A549,7.23 µM (inactive)
same,GI50,ACHN,2.65 µM (inactive)
same,GI50,BT-549,1.93 µM (inactive)
same,GI50,CAKI-1,0.962 µM (active)
same,GI50,CCRF-CEM,0.348 µM (active)
same,GI50,COLO 205,1.44 µM (inactive)
same,GI50,DU-145,2.82 µM (inactive)
same,GI50,EKVX,2.49 µM (inactive)
same,GI50,HCC 2998,3.18 µM (inactive)
same,GI50,HCT-116,1.24 µM (inactive)
same,GI50,HCT-15,2.37 µM
same,GI50,HOP-62,2.11 µM (inactive)
same,GI50,HOP-92,2.87 µM (inactive)
same,GI50,HT-29,2.54 µM (inactive)
same,GI50,Hs-578T,2.62 µM (inactive)
same,GI50,IGROV-1,4.81 µM (inactive)
same,GI50,K562,0.805 µM (active)
same,GI50,KM12,3.33 µM (inactive)
same,GI50,LOX IMVI,2.31 µM (inactive)
same,GI50,M14,1.65 µM (inactive)
same,GI50,MCF7,1.69 µM (inactive)
same,GI50,MDA-MB-231,3.27 µM (inactive)
same,GI50,MDA-MB-435,1.52 µM (inactive)
same,GI50,MDA-N,2.42 µM (inactive)
same,GI50,MOLT-4,0.887 µM (active)
same,GI50,Malme-3M,1.97 µM (inactive)
same,GI50,NCI-H226,11.2 µM (inactive)
same,GI50,NCI-H23,1.92 µM (inactive)
same,GI50,NCI-H460,4.97 µM (inactive)
same,GI50,NCI-H522,0.407 µM (active)
same,GI50,NCI/ADR-RES,3.94 µM (inactive)
same,GI50,OVCAR-3,1.87 µM (inactive)
same,GI50,OVCAR-4,1.95 µM (inactive)
same,GI50,OVCAR-5,3.2 µM (inactive)
same,GI50,OVCAR-8,1.94 µM (inactive)
same,GI50,PC-3,2.07 µM (inactive)
same,GI50,RPMI-8226,0.834 µM (active)
same,GI50,RXF 393,1.62 µM (inactive)
same,GI50,SF-268,2.59 µM (inactive)
same,GI50,SF-295,9.18 µM (inactive)
same,GI50,SK-MEL-28,3.07 µM (inactive)
same,GI50,SK-MEL-2,2.38 µM (inactive)
same,GI50,SK-MEL-5,3.94 µM (inactive)
same,GI50,SK-OV-3,2.92 µM (inactive)
same,GI50,SN12C,1.98 µM (inactive)
same,GI50,SNB-19,1.81 µM (inactive)
same,GI50,SNB-75,2.06 µM (inactive)
same,GI50,SR,0.92 µM (active)
same,GI50,SW-620,1.37 µM (inactive)
same,GI50,T47D,0.753 µM (active)
same,GI50,TK-10,3.51 µM (inactive)
same,GI50,U-251,2.2 µM (inactive)
same,GI50,UACC-257,11.1 µM (inactive)
same,GI50,UACC-62,3.37 µM (inactive)
same,GI50,UO-31,1.55 µM (inactive)
